According to paper PMC11984407, “A natural small molecule isoginkgetin alleviates hypercholesterolemia and atherosclerosis by targeting ACLY” (Theranostics, 2025):

What was measured:
[1] = test system: primary hepatocytes from C57BL/6J mouse; experiment: CCK8 cell viability, primary hepatocytes; format: cell-based; details: concentrations below 7.5 μmol/L, 12 h
Description: The cellular viability was assessed by conducting CCK8 assays in primary hepatocytes from C57BL/6J mouse and HepG2 cell line. Specifically, 2,000 cells per well were plated in 96-well plates and cultured with different concentrations of ISOGK for 12 h. Following this, cell absorption was quantified using a CCK8 kit (CA1210, Solarbio, Beijing, China), adhering strictly to the manufacturer's guidelines. The presented data represents the findings from three independent experiments, with each experiment consisting of four replicates.

[2] = molecular target: T1, hERG channel (Homo sapiens, UniProt Q12809); experiment: Manual whole-cell patch clamp on HEK cells stably expressing hERG; format: cell-based
T1 construct: expressed in transfected cells
T1 sequence (Q12809 whole entry): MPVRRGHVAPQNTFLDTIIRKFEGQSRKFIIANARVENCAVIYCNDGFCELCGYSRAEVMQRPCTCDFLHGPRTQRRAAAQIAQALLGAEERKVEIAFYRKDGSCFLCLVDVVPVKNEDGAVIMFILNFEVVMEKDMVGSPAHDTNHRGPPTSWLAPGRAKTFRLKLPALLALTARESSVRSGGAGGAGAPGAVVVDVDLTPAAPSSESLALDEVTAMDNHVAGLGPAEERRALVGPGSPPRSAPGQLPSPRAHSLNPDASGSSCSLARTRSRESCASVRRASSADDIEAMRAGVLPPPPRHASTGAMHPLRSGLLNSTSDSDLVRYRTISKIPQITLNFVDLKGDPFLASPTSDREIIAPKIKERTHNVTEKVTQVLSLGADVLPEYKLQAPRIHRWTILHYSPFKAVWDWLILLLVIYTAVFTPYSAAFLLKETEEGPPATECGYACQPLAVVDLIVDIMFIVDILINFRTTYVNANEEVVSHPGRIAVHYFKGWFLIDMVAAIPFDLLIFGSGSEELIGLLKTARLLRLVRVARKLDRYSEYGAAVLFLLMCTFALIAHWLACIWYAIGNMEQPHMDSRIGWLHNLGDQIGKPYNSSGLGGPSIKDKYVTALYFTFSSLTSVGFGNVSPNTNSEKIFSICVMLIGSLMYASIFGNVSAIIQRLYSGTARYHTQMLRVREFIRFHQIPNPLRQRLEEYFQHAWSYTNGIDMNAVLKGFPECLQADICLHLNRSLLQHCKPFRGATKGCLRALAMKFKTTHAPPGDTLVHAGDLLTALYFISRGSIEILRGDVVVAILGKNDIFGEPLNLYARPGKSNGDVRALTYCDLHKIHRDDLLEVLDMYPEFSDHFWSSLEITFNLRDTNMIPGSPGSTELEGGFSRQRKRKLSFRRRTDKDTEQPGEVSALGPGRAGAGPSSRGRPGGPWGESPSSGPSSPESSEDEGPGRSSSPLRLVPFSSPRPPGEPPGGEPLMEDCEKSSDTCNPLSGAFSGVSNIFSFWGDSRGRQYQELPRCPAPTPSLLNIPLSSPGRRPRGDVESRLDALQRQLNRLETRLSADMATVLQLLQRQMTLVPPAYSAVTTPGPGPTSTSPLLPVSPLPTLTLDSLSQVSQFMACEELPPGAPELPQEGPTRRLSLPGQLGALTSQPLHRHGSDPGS
Description: The whole-cell patch clamp technique was employed for the experiments. Previously published works detail the methodologies and solutions used for capturing various currents in cardiomyocytes and in HEK cell lines that stably express different K^+ channels. Specifically, the standard bath solution with 5 mM K^+ consisted of 135 mM NaCl, 5 mM KCl, 2 mM CaCl2, 1 mM MgCl2, 10 mM glucose, and 10 mM HEPES, adjusted to pH 7.4 using NaOH. Meanwhile, the bath solution containing 135 mM K^+ was made of 135 mM KCl, 2 mM CaCl2, 1 mM MgCl2, 10 mM glucose, and 10 mM HEPES, with the pH set to 7.4 by adding KOH. All experiments using the patch clamp method were conducted at a controlled room temperature of 22 ± 1 °C.

[3] = test system: LDLR and ACLY protein levels; experiment: Western blot of LDLR and ACLY in Huh-7 cells; format: cell-based, human; details: Huh-7, various concentrations
Description: Western blotting was performed as previously described. In brief, whole-cell lysates from cultured cells and animal tissue were prepared using 1× sample buffer, followed by boiling at 95 °C for 10 min. Subsequently, SDS-PAGE was employed to separate the samples, which were then transferred onto a nitrocellulose membrane (Pall, NY, USA). Subsequently, the membrane was incubated in a blocking buffer for one h at room temperature. Following the removal of the blocking buffer, the blots were incubated with primary antibodies (1:1,000 dilution) at 4 °C overnight. The membrane was washed thrice for 10 min each, using 1× Tris-buffered saline with 0.1% Tween-20 (TBST). Subsequently, the membranes were incubated with IRDye® 680RD Goat anti-Mouse IgG (H + L) or IRDye® 800CW Goat anti-Rabbit IgG (H + L) (1:10,000 dilution, LI-COR, Lincoln, Nebraska, USA) at room temperature for 1 h. Visualization of the blots was carried out using the Li-COR CLx infrared imaging system. GAPDH (60004-1-Ig, Proteintech, Chicago, IL, USA), ACLY (67166-1-Ig, Proteintech, Chicago, IL, USA), LDLR (10785-1-AP, Proteintech, Chicago, IL, USA), β-Actin (66009-1-Ig, Proteintech, Chicago, IL, USA), AMPK (10929-2-AP, Proteintech, Chicago, IL, USA), p-AMPK^T172 (2535, Cell Signaling Technology, Danvers, MA, USA).

[4] = test system: Srebf1c and Fasn mRNA; experiment: RT-qPCR of lipid synthesis genes after ACLY knockdown in AML12 and Huh7 cells; format: cell-based; details: 5 µM, 50 µM PA, 12 h
Description: Total RNA was extracted from cultured cells or animal tissue using RNeasy kits (RN001-50Rxns, YiShan, Shanghai, China). Subsequently, cDNA was generated using a Takara Reverse Transcription Kit (RR037B, Takara, Kyoto, Japan). Subsequently, quantitative real-time polymerase chain reaction (RT-qPCR) assays were conducted using ChamQ SYBR qPCR Master Mix (Q311-02, Vazyme, Nanjing, China), following the reverse transcription. The Roche LC96 real-time PCR detection system was employed for the detection of results, with glyceraldehyde-3-phosphate dehydrogenase (GAPDH) serving as the loading control for the quantification of mRNA levels. The fold change relative to the respective controls was determined using the 2^(^-ΔΔCt) method. Primers were designed using the PrimerQuest software and subsequently synthesised by Sangon Biotech (Shanghai, China).

[5] = test system: Apoe-/- mice; experiment: Liver Acly knockdown by GalNAc-siAcly in Apoe-/- mice; format: in vivo, mouse
Description: Conjugating siRNA with N-acetylgalactosamine (GalNAc) is a promising strategy for depleting target gene expression specifically in the liver. […] In this study, we employed GalNAc-siAcly to knock down Acly in the liver of Apoe^-/- mice that were fed high cholesterol diet for 15 weeks. ISOGK was administered starting from the 7th week for 8 additional weeks (Figure 7A). […] The qRT-PCR results also supported the same conclusion (Figure S7A).
Figure 7 The anti-atherosclerotic and lipid-lowering effects of isoginkgetin in Apoe^-/- mice were ACLY-dependent. (A) Scheme of study design. Briefly, male Apoe^-/- mice were induced by high cholesterol diet for 7 weeks and administrated GalNAc-siAcly (3 mg/kg/month). Animals then received ISOGK (20 mg/kg/day) treatment for another 8 weeks. (B) Immunoblotting analysis and quantification of ACLY protein in liver and kidney tissues from indicated groups (n = 3). One-way ANOVA followed by Bonferroni's post hoc test. (C) Representative images of Oil Red O staining of en face aortas from male Apoe^-/- mice fed high cholesterol diet. (D) Representative images of ORO staining of the aortic sinus from male Apoe^-/- mice fed high cholesterol diet. (E) Representative images of H&E staining of the aortic sinus from male Apoe^-/- mice fed High cholesterol diet. (F) Quantitative analysis of C-E (n = 6 - 8). One-way ANOVA followed by Bonferroni's post hoc test. (G) Plasma levels of TC, TG, LDL-C and HDL-C in the indicated groups (n = 6 - 8). One-way ANOVA followed by Bonferroni's post hoc test. The data are means ± SEM, n.s., not significant, *P < 0.05, **P < 0.01, ***P < 0.001, ****P < 0.0001.

With `COc1ccc(-c2cc(=O)c3c(O)cc(O)c(-c4cc(-c5cc(=O)c6c(O)cc(O)cc6o5)ccc4OC)c3o2)cc1` [ISOGK, Isoginkgetin] the “cytotoxicity (CCK-8)” value [1] was “no significant cytotoxicity”, the IC50 [2] was over 30 µM and the “LDLR and ACLY protein levels” value [3] was “no significant change in the LDLR and ACLY protein levels”. The “mRNA expression of Srebf1c and Fasn following ACLY knockdown” value [4] was “did not demonstrate a further reduction”, the “effect on atherosclerosis in aortic sinus” value ([5]; Acly knockdown Apoe-/- mice) was “not observed” and the “lipid-lowering effect (plasma TC, TG, LDL-C, HDL-C)” value ([5]; Acly knockdown Apoe-/- mice) was “not further observed”. For the same compound, the aortic plaque area ([5]; Acly knockdown group (GalNAc-siAcly), 20 mg/kg/day) was “not decreased further”, the “aortic sinus lesion areas and necrotic core area” value ([5]; control Apoe-/- mice, 20 mg/kg/day) was “significantly reduced” and the “size of aortic plaques vs vehicle” value ([5]; control Apoe-/- mice, 20 mg/kg/day, 8 weeks) was “significantly lower”.
